The values below come from publication PMC8691714 (Cancer Research Communications, 2021).

One series deals with TMD8 cells. As to the kind of experiment: MTT viability assay, TMD8 cells, 72 hours. In kind it is cell-based, human. Here is the method: Cell viability was assessed after 72 hours of incubation.
A general note: Formazan colour is commonly taken as a measure of viable cells.

Another series relates to BTK. Description: Immunoblotting of BTK signaling in primary CLL cells. In kind it is cell-based, human. Particulars: ibrutinib 1 μmol/L with cobicistat 1, 10 μmol/L. The method, then: Blood was drawn from patients with newly diagnosed, untreated CLL after receipt of written informed consent under a protocol approved by the Institutional Review Board of The Ohio State University (Columbus, OH) in accordance with the Declaration of Helsinki. B cells were isolated from whole blood using Rosette-Sep B (StemCell Technologies). Primary CLL cells were cultured in RPMI1640 medium supplemented with 10% FBS, 100 U/mL penicillin, 100 μg/mL streptomycin, and 2 mmol/L […]. […] After 1 hour, the cells were pelleted and resuspended in fresh media. For experiments with extended drug exposure, DMSO and cobicistat were added again after washout.
After 15 minutes of stimulation, cell lysates were collected and analyzed by SDS-PAGE. Protein was transferred to nitrocellulose and blots were probed with primary antibodies and horseradish peroxidase (HRP)-conjugated secondary antibodies. Blots were imaged using WesternBright chemiluminescent substrate (Advansta) on an X-ray film. Phosphorylated proteins were analyzed first, then antibodies were removed using Western Blot Stripping Buffer (Thermo Fisher Scientific) before analyzing total protein. Membranes were stripped after imaging total proteins before analyzing loading control. […] Loading controls were assessed for each membrane and are presented with corresponding proteins analyzed on the same membrane.

Details of series [1]: method as in earlier work. Particulars: PBPK model parameter, ref [17, 18] and Drugbank, cited from earlier work.
On the set-up of series [2]: method as in earlier work. Particulars: PBPK model parameter, ref [17, 18] and Drugbank, cited from earlier work. This is another data set of the same source.
On the set-up of series [3]: method as in earlier work. The note with it: PBPK model parameter, ref [17, 18] and Drugbank, cited from earlier work. This is another data set of the same source.

As for `CC(C)c1nc(CN(C)C(=O)N[C@@H](CCN2CCOCC2)C(=O)N[C@H](CC[C@H](Cc2ccccc2)NC(=O)OCc2cncs2)Cc2ccccc2)cs1` [Cobicistat], in the series on TMD8 cells (cobicistat 0.1, 1 or 10 μmol/L), the “influence on the antileukemic activity of ibrutinib” value was “neither ketoconazole nor cobicistat negatively influenced”. For the same compound, the “impact on ibrutinib's ability to suppress BTK signaling” value with BTK was “did not impact”. In addition, in series [1] (acid dissociation constant), the pKa (usually the negative logarithm of the acid dissociation constant) is given as 6.69. The “Log Po:w” value in series [1] (octanol/water partition coefficient) is 4.36. For the same compound, the B/P ratio in series [2] (blood to plasma ratio) is recorded as 0.55. In addition, in series [2] (unbound drug in the plasma), the “fu, plasma” value was 0.020. Moreover, the Ka entry in series [3] is listed as “Ka (1/h)= 0.29”. Further, the Clpo result in series [3] (oral clearance) is “Clpo (L/h) : 14”. Further, the Vss (usually a proportionality between amount in the body and measured concentration, not a real space) in series [3] (steady-state volume of distribution) is on record as 0.46 L/kg.
For the compound `CC(=O)N1CCN(c2ccc(OCC3COC(Cn4ccnc4)(c4ccc(Cl)cc4Cl)O3)cc2)CC1` (stereo not shown) [Ketoconazole], the “influence on the antileukemic activity of ibrutinib” value in the series on TMD8 cells (ketoconazole 0.1, 1 or 10 μmol/L) is “neither ketoconazole nor cobicistat negatively influenced”.
